Assay results: patent publication US20240116985A1, “STAPLED PEPTIDES AND METHODS THEREOF” (priority 2020, published 2024)
≈ marks a conversion by molar mass, not a printed value. Like-named read-outs stand apart in the source and are kept apart here. Starred links: 1 amine or outer side, 2 acyl side, 3 side chain; linkers in the order of their positions; H or OH if unused. Non-standard residues stand in square brackets, D forms with d. Residues, ends and D or L forms follow the SMILES beside them. X1 = C=CCOC(=O)N1CC[C@@](N[*:1])(C(=O)[*:2])C1; R8 = C=CCCCCCC[C@@](C)(N)C(=O)O

What was measured:
CHI Log D procedure = format: physicochemical; settings: for CHI Log D: pH 7.4
Solubility in PBS = format: physicochemical
Procedure, shortened: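 The PBS solution was ultracentrifuged and the supernatant analyzed by HPLC. Its peak area was divided by that of a 50 μM peptide DMSO reference injection and multiplied by 50 uM to give solubility.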

CHI Log D (CHI Log D procedure) | Solubility (Solubility in PBS) [µM] | further results | Compound
1.475 | 33 (≈ 69.5 µg/mL) |  | COCCOCCC(=O)NCCCC[C@@H]1NC(=O)[C@H](C)NC(=O)[C@H](CC(=O)O)NC(=O)[C@H](CC(=O)O)NC(=O)C2(CCCC=CCCCOC(=O)N3CC[C@@](C(=O)N[C@@H](Cc4ccsc4)C(=O)N[C@@H](Cc4csc5ccccc45)C(=O)N[C@@H](CCC(N)=O)C(N)=O)(C3)NC(=O)[C@H](CC(N)=O)NC(=O)[C@H](Cc3ccccc3)NC1=O)CCCC=CC[C@]1(CCCN1C(C)=O)C(=O)N[C@@H](CC(=O)O)C(=O)N[C@@H](CC(C)(C)C)C(=O)N2 (stereo partly drawn) [I-892, Ac-PL3-Asp-Npg-B5-Asp-Asp-Ala-[mPEG2]Lys-Phe-Asn-PyrS2-3Thi-BztA-Gln-NH2]
2.935 | 50 (≈ 93.8 µg/mL) |  | CC(=O)N1CCC[C@]12CC=CCCCC1(CCCC=CCCCCCC[C@@](C)(C(=O)N[C@@H](Cc3ccccc3)C(=O)N[C@@H](Cc3csc4ccccc34)C(=O)N[C@@H](CCC(N)=O)C(N)=O)NC(=O)[C@H](CC(N)=O)NC(=O)[C@H](Cc3ccccc3)NC(=O)[C@H](C)NC(=O)[C@H](C)NC(=O)[C@H](CCC(=O)O)NC(=O)[C@H](CNS(C)(=O)=O)NC1=O)NC(=O)[C@H](C)NC(=O)[C@H](CC(=O)O)NC2=O (stereo partly drawn) [I-530, Ac-PL3-Asp-Ala-B5-[MeSO2]Dap-Glu-Ala-Ala-Phe-Asn-S8-Phe-BztA-Gln-NH2]
 |  | chromatographic logD (CHI Log D procedure; pH 7.4, CHI Log D): 1.51; solubility at 15 min (Solubility in PBS; Solubility (uM)): 45 µM (≈ 84.6 µg/mL) | C=CCCCCCC[C@@](C)(NC(=O)[C@H](C)NC(=O)[C@H](CC(=O)O)NC(=O)[C@H](Cc1ccccc1)NC(C)=O)C(=O)N[C@@H](CC(=O)O)C(=O)N[C@@H](CC(=O)O)C(=O)N[C@@H](C)C(=O)N[C@@H](C)C(=O)N[C@@H](Cc1ccccc1)C(=O)N[C@@H](CCC(N)=O)C(=O)N[C@@]1(C(=O)N[C@@H](Cc2ccccc2)C(=O)N[C@@H](Cc2c[nH]c3ccccc23)C(=O)N[C@@H](CCC(N)=O)C(N)=O)CCN(C(=O)OCC=C)C1 [I-579, Ac-Phe-Asp-Ala-R8-Asp-Asp-Ala-Ala-Phe-Gln-PyrS-Phe-Trp-Gln-NH2] (Ac-FDA[R8]DDAAFQ[X1]FWQ-NH2)
2.191 | 44 (≈ 80.6 µg/mL) |  | CC(=O)N1CCC[C@]12CC=CCCCC1(CCCC=CCCCCCC[C@@](C)(C(=O)N[C@@H](Cc3cccc4ccccc34)C(=O)N[C@@H](Cc3c[nH]c4ccccc34)C(=O)N[C@@H](CCC(N)=O)C(N)=O)NC(=O)[C@H](C(C)C)NC(=O)[C@H](Cc3ccccc3)NC(=O)[C@H](C)NC(=O)[C@H](C)NC(=O)[C@H](CC(=O)O)NC(=O)[C@H](CC(=O)O)NC1=O)NC(=O)[C@H](C)NC(=O)[C@H](CC(=O)O)NC2=O (stereo partly drawn) [I-275, Ac-PL3-Asp-Ala-B5-Asp-Asp-Ala-Ala-Phe-Val-S8-1NapA-Trp-Gln-NH2]
2.415 | 49 (≈ 85.1 µg/mL) |  | CC(=O)N1CCC[C@]12CC=CCCCC1(CCCC=CCCCCCC[C@@](C)(C(=O)N[C@@H](Cc3ccccc3)C(=O)N[C@@H](Cc3c[nH]c4ccccc34)C(=O)N[C@@H](CCC(N)=O)C(N)=O)NC(=O)[C@H](C(C)C)NC(=O)[C@H](Cc3ccccc3)NC(=O)[C@H](C)NC(=O)[C@H](C)NC(=O)[C@H](CC(=O)O)NC(=O)[C@H](CC(=O)O)NC1=O)NC(=O)[C@H](C)NC(=O)[C@H](C)NC2=O (stereo partly drawn) [I-349, Ac-PL3-Ala-Ala-B5-Asp-Asp-Ala-Ala-Phe-Val-S8-Phe-Trp-Gln-NH2]
2.868 | 17 (≈ 31.4 µg/mL) |  | CC(=O)N1CCC[C@]12CC=CCCCC1(CCCC=CCCCCCC[C@@](C)(C(=O)N[C@@H](Cc3cccc(F)c3F)C(=O)N[C@@H](Cc3csc4ccccc34)C(=O)N[C@@H](CCC(N)=O)C(N)=O)NC(=O)[C@H](C(C)C)NC(=O)[C@H](Cc3ccccc3)NC(=O)[C@H](C)NC(=O)[C@H](C)NC(=O)[C@H](CCC(=O)O)NC(=O)[C@H](CC(=O)O)NC1=O)NC(=O)[C@H](C)NC(=O)[C@H](CC(=O)O)NC2=O (stereo partly drawn) [I-389, Ac-PL3-Asp-Ala-B5-Asp-Glu-Ala-Ala-Phe-Val-S8-23FF-BztA-Gln-NH2]
2.058 | 44 (≈ 82.1 µg/mL) |  | CC(=O)N1CCC[C@]12CC=CCCCC1(CCCC=CCCCCCC[C@@](C)(C(=O)N[C@@H](Cc3ccccc3)C(=O)N[C@@H](Cc3csc4ccccc34)C(=O)N[C@@H](CCC(N)=O)C(N)=O)NC(=O)[C@H](CCC(N)=O)NC(=O)[C@H](Cc3ccccc3)NC(=O)[C@H](C)NC(=O)[C@H](C)NC(=O)[C@H](CCC(=O)O)NC(=O)[C@H](CC(=O)O)NC1=O)NC(=O)[C@H](C)NC(=O)[C@H](Cc1nn[nH]n1)NC2=O (stereo partly drawn) [I-416, Ac-PL3-tetz-Ala-B5-Asp-Glu-Ala-Ala-Phe-Gln-S8-Phe-BztA-Gln-NH2]
2.637 | 42 (≈ 76.7 µg/mL) |  | CC(=O)N1CCC[C@]12CC=CCCCC1(CCCC=CCCCCCC[C@@](C)(C(=O)N[C@@H](Cc3ccccc3)C(=O)N[C@@H](Cc3csc4ccccc34)C(=O)N[C@@H](CCC(N)=O)C(N)=O)NC(=O)[C@H](CCC(N)=O)NC(=O)[C@H](Cc3ccccc3)NC(=O)[C@H](C)NC(=O)[C@H](C)NC(=O)[C@H](CCC(=O)O)NC(=O)[C@H](CCO)NC1=O)NC(=O)[C@H](C)NC(=O)[C@H](CC(=O)O)NC2=O (stereo partly drawn) [I-498, Ac-PL3-Asp-Ala-B5-Hse-Glu-Ala-Ala-Phe-Gln-S8-Phe-BztA-Gln-NH2]
 | 50 (≈ 94.2 µg/mL) | chromatographic logD (CHI Log D procedure; pH 7.4, CHI Log D): 2.15 | CC[C@H](C)[C@@H]1NC(=O)[C@H](CC(=O)O)NC(=O)[C@]2(CC=CCCCC3(CCCC=CCCCCCC[C@@](C)(C(=O)N[C@@H](CC(=O)O)C(=O)N[C@@H](Cc4csc5ccccc45)C(=O)N[C@@H](CCC(N)=O)C(N)=O)NC(=O)[C@H](CCC(N)=O)NC(=O)[C@H](Cc4ccccc4)NC(=O)[C@H](C)NC(=O)[C@H](C)NC(=O)[C@H](CCC(=O)O)NC(=O)[C@H](Cc4ccccc4)NC3=O)NC1=O)CCCN2C(C)=O (stereo partly drawn) [I-587, Ac-PL3-Asp-Ile-B5-Phe-Glu-Ala-Ala-Phe-Gln-S8-Asp-BztA-Gln-NH2]
2.887 | 48 (≈ 83.4 µg/mL) |  | CC(=O)N1CCC[C@]12CC=CCCCC1(CCCC=CCCCCCC[C@@](C)(C(=O)N[C@@H](Cc3ccccc3)C(=O)N[C@@H](Cc3c[nH]c4ccccc34)C(=O)N[C@@H](CCC(N)=O)C(N)=O)NC(=O)[C@H](C(C)C)NC(=O)[C@H](Cc3ccccc3)NC(=O)[C@H](C)NC(=O)[C@H](C)NC(=O)[C@H](CC(=O)O)NC(=O)[C@H](C)NC1=O)NC(=O)[C@H](C)NC(=O)[C@H](CC(=O)O)NC2=O (stereo partly drawn) [I-350, Ac-PL3-Asp-Ala-B5-Ala-Asp-Ala-Ala-Phe-Val-S8-Phe-Trp-Gln-NH2]
2.134 | 11 (≈ 20.9 µg/mL) |  | CC(=O)N[C@@H](Cc1ccccc1)C(=O)N[C@@H](CC(=O)O)C(=O)N[C@@H](C)C(=O)N[C@]1(C)CCCCCCC=CCOC(=O)N2CC[C@@](C(=O)N[C@@H](Cc3ccccc3)C(=O)N[C@@H](Cc3c[nH]c4ccccc34)C(=O)N[C@@H](CCC(N)=O)C(N)=O)(C2)NC(=O)[C@H](C(C)C)NC(=O)[C@H](Cc2ccccc2)NC(=O)[C@H](C)NC(=O)[C@H](C)NC(=O)[C@H](Cc2ccc3ccccc3c2)NC(=O)[C@H](CC(=O)O)NC1=O [I-116, Ac-Phe-Asp-Ala-R8-Asp-2NapA-Ala-Ala-Phe-Val-PyrS-Phe-Trp-Gln-NH2]
2.397 | 46 (≈ 79.9 µg/mL) |  | CC(=O)N1CCC[C@]12CC=CCCCC1(CCCC=CCCCCCC[C@@](C)(C(=O)N[C@@H](Cc3ccccc3)C(=O)N[C@@H](Cc3c[nH]c4ccccc34)C(=O)N[C@@H](CCC(N)=O)C(N)=O)NC(=O)[C@H](C(C)C)NC(=O)[C@H](Cc3ccccc3)NC(=O)[C@H](C)NC(=O)[C@H](C)NC(=O)[C@H](CC(=O)O)NC(=O)[C@H](CC(=O)O)NC1=O)NC(=O)[C@H](C)NC(=O)[C@H](C)NC2=O (stereo partly drawn) [I-348, Ac-PL3-Ala-Ala-B5-Asp-Asp-Ala-Ala-Phe-Val-S8-Phe-Trp-Gln-NH2]
2.09 | 32 (≈ 56.3 µg/mL) |  | CC(=O)N1CCC[C@]12CC=CCCCC1(CCCC=CCCCCCC[C@@](C)(C(=O)N[C@@H](Cc3ccccc3)C(=O)N[C@@H](Cc3csc4ccccc34)C(=O)N[C@@H](CCC(N)=O)C(N)=O)NC(=O)[C@H](C)NC(=O)[C@H](Cc3c[nH]cn3)NC(=O)[C@H](C)NC(=O)[C@H](C)NC(=O)[C@H](CC(=O)O)NC(=O)[C@H](CC(=O)O)NC1=O)NC(=O)[C@H](C)NC(=O)[C@H](CC(=O)O)NC2=O (stereo partly drawn) [I-363, Ac-PL3-Asp-Ala-B5-Asp-Asp-Ala-Ala-His-Ala-S8-Phe-BztA-Gln-NH2]
2.137 | 26 (≈ 45.8 µg/mL) |  | CC(=O)N1CCC[C@]12CC=CCCCC1(CCCC=CCCCCCC[C@@](C)(C(=O)N[C@@H](Cc3ccccc3)C(=O)N[C@@H](Cc3csc4ccccc34)C(=O)N[C@@H](CCC(N)=O)C(N)=O)NC(=O)[C@H](C)NC(=O)[C@H](Cc3c[nH]cn3)NC(=O)[C@H](C)NC(=O)[C@H](C)NC(=O)[C@H](CC(=O)O)NC(=O)[C@H](CC(=O)O)NC1=O)NC(=O)[C@H](C)NC(=O)[C@H](CC(=O)O)NC2=O (stereo partly drawn) [I-364, Ac-PL3-Asp-Ala-B5-Asp-Asp-Ala-Ala-His-Ala-S8-Phe-BztA-Gln-NH2]
2.14 | 47 (≈ 85.2 µg/mL) |  | CC(=O)N1CCC[C@]12CC=CCCCC1(CCCC=CCCCCCC[C@@](C)(C(=O)N[C@@H](Cc3ccccc3)C(=O)N[C@@H](Cc3csc4ccccc34)C(=O)N[C@@H](CCC(N)=O)C(N)=O)NC(=O)[C@H](C(C)C)NC(=O)[C@H](Cc3ccccn3)NC(=O)[C@H](C)NC(=O)[C@H](C)NC(=O)[C@H](CCC(=O)O)NC(=O)[C@H](CC(=O)O)NC1=O)NC(=O)[C@H](C)NC(=O)[C@H](CC(=O)O)NC2=O (stereo partly drawn) [I-386, Ac-PL3-Asp-Ala-B5-Asp-Glu-Ala-Ala-2pyrA-Val-S8-Phe-BztA-Gln-NH2]
 |  | logD (CHI Log D procedure; pH 7.4, CHI Log D): 1.62; Solubility (Solubility in PBS; Solubility (uM)): 38 µM (≈ 94.3 µg/mL) | CC(=O)N1CCC[C@]12CC=CCCCC1(CCCC=CCCCOC(=O)N3CC[C@@](C(=O)N[C@@H](Cc4ccsc4)C(=O)N[C@@H](Cc4csc5ccccc45)C(=O)N[C@@H](Cc4c[nH]cn4)C(N)=O)(C3)NC(=O)[C@H](CC(N)=O)NC(=O)[C@H](Cc3ccccc3)NC(=O)[C@H](C)NC(=O)[C@H](CCCCNC(=O)Cn3cc(CNC(=O)c4ccc5c(c4)C4(OC5=O)c5ccc(O)cc5Oc5cc(O)ccc54)nn3)NC(=O)[C@H](CC(=O)O)NC(=O)[C@H](CC(=O)O)NC1=O)NC(=O)[C@H](CC(C)(C)C)NC(=O)[C@H](CC(=O)O)NC2=O (stereo partly drawn) [I-865, Ac-PL3-Asp-Npg-B5-Asp-Asp-[FAM6Ppg][1TriAc]Lys-Ala-Phe-Asn-PyrS2-3Thi-BztA-His-NH2]
